Read-outs that look alike come from different tables or passages of the source.
Experiments:
KMT9 [1] = target: T1, KMT9 (Homo sapiens, UniProt Q9Y5N5); test: KMT9 thermal shift assay (SyproOrange); assay type: binding
T1 sequence (Q9Y5N5 1-214): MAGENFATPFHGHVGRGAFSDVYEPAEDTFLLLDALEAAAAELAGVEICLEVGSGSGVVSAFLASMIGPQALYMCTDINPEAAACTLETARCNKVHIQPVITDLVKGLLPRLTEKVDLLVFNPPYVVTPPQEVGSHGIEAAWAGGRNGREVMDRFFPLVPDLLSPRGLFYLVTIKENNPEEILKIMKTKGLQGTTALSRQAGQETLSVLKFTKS
T1 sequence (Q9UI30 1-120 isoform Q9UI30-2 partner): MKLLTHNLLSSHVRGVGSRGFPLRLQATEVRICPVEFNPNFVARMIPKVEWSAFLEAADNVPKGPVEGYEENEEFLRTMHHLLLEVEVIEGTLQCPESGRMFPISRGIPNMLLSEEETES
Outline: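 ΔTm versus DMSO-only control is reported in bins (>20 K, 15–20 K, 10–15 K, ≤10 K), using Tm from Boltzmann sigmoidal fits of SyproOrange melt curves. KMT9 with compound in pH 8.5 BTP buffer containing MgCl2 and DTT was preincubated at 25° C, then ramped 1° C per 15 s up to 95° C.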

KMT9 [2] = target: T1, KMT9; test: Microscale thermophoresis (MST) KMT9 binding
Outline: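 Kd from microscale thermophoresis: compound series against 20 nM His-KMT9 labelled via RED-Tris-NTA, buffer 25 mM HEPES (pH 7.5)/100 mM NaCl/1 mM DTT/0.05% Tween, 40% MST power, 100% LED. Reported as classes: A ≤10 nM, B >10–100 nM, C >100–1000 nM, D >1000 nM.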

KMT9 [3] = target: T1, KMT9; test: KMT9 methyltransferase inhibition assay, MTaseGlo luminescence (from entry 155); assay type: biochemical; details: 100 nM KMT9, 5 μM ETF1, 1 μM SAM
Procedure: For the compounds from entry 155 on in Table 1, the following procedure was used to determine IC50 values: The assay was carried out in white, opaque 384-well OptiPlates (PerkinElmer). For IC50 determination, a 2.5x substrate mix (final assay concentrations: 5 μM ETF1, 1 μM SAM and 1x MTaseGlo Reagent), a 2.5x KMT9 solution (final assay concentration 100 nM) and a 5x inhibitor stock 1:1 dilution series (concentration according to the desired range; dilution series was prepared in assay buffer containing 10% DMSO to obtain a final DMSO concentration of 2% in the assay) were prepared. 2 μL of 5x inhibitor stock and 4 μL of 2.5x KMT9 were pipetted, the plate was spun down at 700 rpm for 1 min using a Hettich UNIVERSAL 320 centrifuge and incubated at room temperature (around 25° C.) for 15 min. The reaction was initiated by adding 4 μL of 2.5x substrate mix, the plate was spun down as described before and incubated at 30° C. for 2 h. Afterwards, 10 μL of 2× MTaseGlo Detection solution was added, the plate was centrifuged as described above and incubated for 60 min at room temperature. Luminescence was measured using a PerkinElmer EnVision 2102 Multilabel Reader. Calculation of inhibition and data fitting was carried out as for entries 1-154. described above.
For the results of the methyltransferase inhibition assay shown as “Inhibition” in Table 1, “I” represents an IC50 less than 0.1 μM, “II” represents an IC50 equal or higher than 0.1 μM and less than 1 μM, “III” represents an IC50 equal or higher than 1 µM and less than 10 µM and “IV” represents an IC50 equal or higher than 10 µM

[4] = 500 µM compound, 2 μM KMT9, read-out: Thermal shift (ΔTm)
[5] = His-tag labelled KMT9 20 nM, read-out: MST (Kd)
[6] = MTaseGlo procedure (entries from 155), read-out: Inhibition (IC50)
[7] = ΔTm, 500 µM compound, 2 μM KMT9, 5X SO, read-out: Thermal shift
[8] = microscale thermophoresis, His-tag labelled KMT9 (20 nM), read-out: MST
[9] = from entry 155: MTaseGlo assay, read-out: Inhibition
[10] = ΔTm class, 500 uM compound, 2 μM KMT9, read-out: Thermal shift
[11] = His-tag labelled KMT9 20 nM, Kd class, read-out: MST
[12] = IC50 class, MTaseGlo procedure (entries from 155 on), read-out: Inhibition

Row | Compound | ΔTm at 500 µM (KMT9 [1]; [7]) [°C] | Kd (KMT9 [2]; [8]) [µM] | IC50 (KMT9 [3]; [9]) [µM] | other results
1 | Nc1nc(Cl)nc2c1c(-c1nccs1)cn2[C@@H]1CC(CN(CCCNCCc2ccc(F)cc2)c2cn[nH]c2)[C@@H](O)[C@H]1O (single isomer, unassigned) [Compound 543] | – | – | – | ΔTm at 500 µM (KMT9 [1]; [4]): > 20 °C; Kd (KMT9 [2]; [5]): ≤ 0.01 µM; IC50 (KMT9 [3]; [6]): 0.1 to 1 µM
2 | CCc1cn([C@@H]2C[C@H](CNCCCNCCc3ccc(C(F)(F)F)cc3)[C@@H](O)[C@H]2O)c2ncnc(N)c12 [Compound 379, (1R,2S,3R,5R)-3-(4-amino-5-ethyl-7H-pyrrolo[2,3-d]pyrimidin-7-yl)-5-(((3-((4-(trifluoromethyl)phenethyl)amino)propyl)amino)methyl) cyclopentane-1,2-diol] | 10 to 15 | 0.1 to 1 | 1 to 10 | –
3 | CCc1cn([C@@H]2C[C@H](CNCCCNCCc3ccc(F)cc3)[C@@H](O)[C@H]2O)c2ncnc(N)c12 [Compound 381, (1R,2S,3R,5R)-3-(4-amino-5-ethyl-7H-pyrrolo[2,3-d]pyrimidin-7-yl)-5-(((3-((4-fluorophenethyl)amino)propyl)amino)methyl) cyclopentane-1,2-diol] | 10 to 15 | 0.1 to 1 | 1 to 10 | –
4 | CCc1cn([C@@H]2C[C@H](CNCCCNCCc3ccc(F)cc3F)[C@@H](O)[C@H]2O)c2ncnc(N)c12 [Compound 383, (1R,2S,3R,5R)-3-(4-amino-5-ethyl-7H-pyrrolo[2,3-d]pyrimidin-7-yl)-5-(((3-((2,4-difluorophenethyl)amino)propyl)amino)methyl) cyclopentane-1,2-diol] | 10 to 15 | 0.01 to 0.1 | 1 to 10 | –
5 | Nc1ncnc2c1ccn2[C@@H]1C[C@H](c2cc(Cl)cc(Cl)c2)[C@@H](O)[C@H]1O [Compound 384, (1R,2S,3R,5R)-3-(4-amino-7H-pyrrolo[2,3-a]pyrimidin-7-yl)-5-(3,5-dichlorophenyl) cyclopentane-1,2-diol] | ≤ 10 | > 1 | > 10 | –
6 | Nc1ncnc2c1ccn2[C@@H]1C[C@H](c2ccccc2)[C@@H](O)[C@H]1O [Compound 385, (1R,2S,3R,5R)-3-(4-amino-7H-pyrrolo[2,3-d]pyrimidin-7-yl)-5-phenylcyclopentane-1,2-diol] | ≤ 10 | > 1 | > 10 | –
7 | Nc1ncnc2c1c(Br)cn2[C@@H]1C[C@H](c2ccccc2)[C@@H](O)[C@H]1O [Compound 386, (1R,2S,3R,5R)-3-(4-amino-5-bromo-7H-pyrrolo[2,3-a]pyrimidin-7-yl)-5-phenylcyclopentane-1,2-diol] | – | – | – | ΔTm at 500 µM (KMT9 [1]; [10]): ≤ 10 °C; Kd (KMT9 [2]; [11]): > 1 µM; IC50 (KMT9 [3]; [12]): > 10 µM
8 | Nc1ncnc2c1ccn2[C@@H]1C[C@H](c2ccc3ccccc3c2)[C@@H](O)[C@H]1O [Compound 387, (1R,2S,3R,5R)-3-(4-amino-7H-pyrrolo[2,3-d]pyrimidin-7-yl)-5-(naphthalen-2-yl) cyclopentane-1,2-diol] | ≤ 10 | > 1 | > 10 | –
9 | Nc1ncnc2c1ccn2[C@@H]1C[C@H](c2ccncc2)[C@@H](O)[C@H]1O [Compound 389, (1R,2S,3R,5R)-3-(4-amino-7H-pyrrolo[2,3-d]pyrimidin-7-yl)-5-(pyridin-4-yl) cyclopentane-1,2-diol] | ≤ 10 | > 1 | > 10 | –
10 | Nc1ncnc2c1ccn2[C@@H]1C[C@H](c2cccs2)[C@@H](O)[C@H]1O [Compound 390, (1R,2S,3R,5S)-3-(4-amino-7H-pyrrolo[2,3-a]pyrimidin-7-yl)-5-(thiophen-2-yl) cyclopentane-1,2-diol] | ≤ 10 | > 1 | > 10 | –
11 | Nc1ncnc2c1ccn2[C@@H]1C[C@H](c2ccn[nH]2)[C@@H](O)[C@H]1O [Compound 391, (1R,2S,3R,5R)-3-(4-amino-7H-pyrrolo[2,3-d]pyrimidin-7-yl)-5-(1H-pyrazol-5-yl) cyclopentane-1,2-diol] | – | – | – | ΔTm at 500 µM (KMT9 [1]; [10]): ≤ 10 °C; Kd (KMT9 [2]; [11]): > 1 µM; IC50 (KMT9 [3]; [12]): > 10 µM
12 | NCc1cccc([C@H]2C[C@@H](n3cc(Br)c4c(N)nc(Cl)nc43)[C@H](O)[C@@H]2O)c1 [Compound 393, (1R,2S,3R,5R)-3-(4-amino-5-bromo-2-chloro-7H-pyrrolo[2,3-d]pyrimidin-7-yl)-5-(3-(aminomethyl)phen-yl) cyclopentane-1,2-diol] | – | – | – | ΔTm at 500 µM (KMT9 [1]; [4]): 15 to 20 °C; Kd (KMT9 [2]; [5]): ≤ 0.01 µM; IC50 (KMT9 [3]; [6]): 0.1 to 1 µM
13 | Nc1ncnc2c1c(-c1nccs1)cn2[C@@H]1C[C@H](c2cc(Cl)cc(Cl)c2)[C@@H](O)[C@H]1O [Compound 394, (1R,2S,3R,5R)-3-(4-amino-5-(thiazol-2-yl)-7H-pyrrolo[2,3-d]pyrimidin-7-yl)-5-(3,5-dichlorophenyl) cyclo-pentane-1,2-diol] | ≤ 10 | > 1 | > 10 | –
14 | CCc1cn([C@@H]2C[C@H](c3ccccc3)[C@@H](O)[C@H]2O)c2ncnc(N)c12 [Compound 396, (1R,2S,3R,5R)-3-(4-amino-5-ethyl-7H-pyrrolo[2,3-d]pyrimidin-7-yl)-5-phenylcyclopentane-1,2-diol] | – | – | – | ΔTm at 500 µM (KMT9 [1]; [10]): ≤ 10 °C; Kd (KMT9 [2]; [11]): > 1 µM; IC50 (KMT9 [3]; [12]): > 10 µM
15 | Nc1ncnc2c1ccn2[C@@H]1C[C@H]([C@H]2CCCN2)[C@@H](O)[C@H]1O [Compound 398, (1R,2S,3R,5R)-3-(4-amino-7H-pyrrolo[2,3-d]pyrimidin-7-yl)-5-((R)-pyrrolidin-2-yl) cyclopentane-1,2-diol] | – | – | – | ΔTm at 500 µM (KMT9 [1]; [4]): ≤ 10 °C; Kd (KMT9 [2]; [5]): > 1 µM; IC50 (KMT9 [3]; [6]): > 10 µM
16 | Nc1ncnc2c1ccn2[C@@H]1C[C@H]([C@@H]2CCCN2)[C@@H](O)[C@H]1O [Compound 399, (1R,2S,3R,5R)-3-(4-amino-7H-pyrrolo[2,3-a]pyrimidin-7-yl)-5-((S)-pyrrolidin-2-yl) cyclopentane-1,2-diol] | – | – | – | ΔTm at 500 µM (KMT9 [1]; [4]): ≤ 10 °C; Kd (KMT9 [2]; [5]): > 1 µM; IC50 (KMT9 [3]; [6]): > 10 µM
17 | Nc1ncnc2c1ccn2[C@@H]1C[C@H](c2cccc(O)c2)[C@@H](O)[C@H]1O [Compound 404, (1R,2S,3R,5R)-3-(4-amino-7H-pyrrolo[2,3-d]pyrimidin-7-yl)-5-(3-hydroxyphenyl) cyclopentane-1,2-diol] | – | – | – | ΔTm at 500 µM (KMT9 [1]; [10]): ≤ 10 °C; Kd (KMT9 [2]; [11]): > 1 µM; IC50 (KMT9 [3]; [12]): > 10 µM
18 | Nc1ncnc2c1ccn2[C@@H]1C[C@H](c2ccc(O)cc2)[C@@H](O)[C@H]1O [Compound 405, (1R,2S,3R,5R)-3-(4-amino-7H-pyrrolo[2,3-d]pyrimidin-7-yl)-5-(4-hydroxyphenyl) cyclopentane-1,2-diol] | – | – | – | ΔTm at 500 µM (KMT9 [1]; [10]): 10 to 15 °C; Kd (KMT9 [2]; [11]): > 1 µM; IC50 (KMT9 [3]; [12]): > 10 µM

More lines, main results first:

Row | ΔTm at 500 µM (KMT9 [1]; [7]) [°C] | Kd (KMT9 [2]; [8]) [µM] | IC50 (KMT9 [3]; [9]) [µM] | Compound | other results
19 | 15 to 20 | 0.1 to 1 | 1 to 10 | Nc1ncnc2c1c(-c1nc(Cc3ccccc3)cs1)cn2[C@@H]1C[C@H]([C@@H]2CCCNC2)[C@@H](O)[C@H]1O (single isomer, unassigned) [Compound 593R] | –
20 | 10 to 15 | 0.1 to 1 | 1 to 10 | Nc1ncnc2c1c(-c1nc(Cc3ccccc3)cs1)cn2[C@@H]1C[C@H]([C@H]2CCCNC2)[C@@H](O)[C@H]1O (single isomer, unassigned) [Compound 593S] | –
21 | ≤ 10 | > 1 | > 10 | Nc1ncnc2c1c(-c1nccs1)cn2[C@@H]1C[C@H](c2ccccc2)[C@@H](O)[C@H]1O [Compound 395, (1R,2S,3R,5R)-3-(4-amino-5-(thiazol-2-yl)-7H-pyrrolo[2,3-d]pyrimidin-7-yl)-5-phenylcyclopentane-1,2-diol] | –

Source: patent publication US20250188110A1, “SPECIFIC SMALL MOLECULE INHIBITORS THAT BLOCK KMT9 METHYLTRANSFERASE ACTIVITY AND FUNCTION” (ALBERT-LUDWIGS-UNIVERSITÄT FREIBURG, priority 2021, published 2025)
